Measurements published in ChEMBL document CHEMBL1255496, “Pharmacokinetic-pharmacodynamic-model-guided doripenem dosing in critically ill patients” (2010).
≈ marks a conversion by molar mass, not a printed value.

How the values were obtained:
Type in all cases: functional
Pseudomonas aeruginosa [1] = assay: Antimicrobial activity against Pseudomonas aeruginosa clinical isolates
Escherichia coli [2] = assay: Antimicrobial activity against Escherichia coli clinical isolates
Acinetobacter baumannii = assay: Antimicrobial activity against Acinetobacter baumannii clinical isolates
Klebsiella aerogenes = assay: Antimicrobial activity against Enterobacter aerogenes clinical isolates
Staphylococcus sp. [3] = assay: Antimicrobial activity against Staphylococcus sp. clinical isolates
Enterococcus faecalis [4] = assay: Antimicrobial activity against Enterococcus faecalis clinical isolates
Enterococcus sp. = assay: Antimicrobial activity against Enterococcus sp. clinical isolates
Escherichia coli [5] = assay: Antimicrobial activity against Escherichia coli clinical isolate obtained from critically ill patients
Haemophilus influenzae = assay: Antimicrobial activity against Haemophilus influenzae clinical isolate obtained from critically ill patients
Morganella morganii = assay: Antimicrobial activity against Morganella morganii clinical isolates
Acinetobacter sp. [6] = assay: Antimicrobial activity against Acinetobacter sp. clinical isolate obtained from critically ill patients
Burkholderia cepacia = assay: Antimicrobial activity against Burkholderia cepacia clinical isolates
Klebsiella pneumoniae [7] = assay: Antimicrobial activity against Klebsiella pneumoniae clinical isolate obtained from critically ill patients
Haemophilus sp. = assay: Antimicrobial activity against Haemophilus sp. clinical isolates
Enterococcus faecalis [8] = assay: Antimicrobial activity against Enterococcus faecalis clinical isolate obtained from critically ill patients
Streptococcus pneumoniae [9] = assay: Antimicrobial activity against Streptococcus pneumoniae clinical isolates
Staphylococcus aureus [10] = assay: Antimicrobial activity against methicillin-susceptible Staphylococcus aureus clinical isolate obtained from critically ill patients
Citrobacter koseri = assay: Antimicrobial activity against Citrobacter koseri clinical isolates
Pseudomonas aeruginosa [11] = assay: Antimicrobial activity against Pseudomonas aeruginosa clinical isolate obtained from critically ill patients
[12] = T>MIC in bacilli infected patients with moderate renal impairment at 250 mg administered as 1 hr infusion every 8 hrs
Staphylococcus aureus [13] = assay: Antimicrobial activity against oxacillin-susceptible Staphylococcus aureus clinical isolates
[14] = T>MIC in bacilli infected patients with renal impairment at 500 mg administered as 1 hr infusion every 8 hrs
Streptococcus pneumoniae [15] = assay: Antimicrobial activity against Streptococcus pneumoniae clinical isolate obtained from critically ill patients
Enterobacteriaceae = assay: Antimicrobial activity against Enterobacteriaceae clinical isolates
[16] = test system: Stenotrophomonas maltophilia; assay: Antimicrobial activity against Stenotrophomonas maltophilia clinical isolates
Klebsiella oxytoca = assay: Antimicrobial activity against Klebsiella oxytoca clinical isolates
Acinetobacter sp. [17] = assay: Antimicrobial activity against Acinetobacter sp. clinical isolates
Staphylococcus aureus [18] = assay: Antimicrobial activity against Staphylococcus aureus clinical isolates
Enterobacter cloacae [19] = assay: Antimicrobial activity against Enterobacter cloacae clinical isolates
Proteus mirabilis [20] = assay: Antimicrobial activity against Proteus mirabilis clinical isolates
Staphylococcus sp. [21] = assay: Antimicrobial activity against Coagulase-negative oxacillin-susceptible Staphylococcus sp. clinical isolates
Enterobacter cloacae [22] = assay: Antimicrobial activity against Enterobacter cloacae clinical isolate obtained from critically ill patients
Staphylococcus sp. [23] = assay: Antimicrobial activity against Coagulase-negative Staphylococcus sp. clinical isolates
Klebsiella pneumoniae [24] = assay: Antimicrobial activity against Klebsiella pneumoniae clinical isolates
Staphylococcus aureus [25] = assay: Antimicrobial activity against methicillin-resistant Staphylococcus aureus clinical isolate obtained from critically ill patients
Proteus mirabilis [26] = assay: Antimicrobial activity against Proteus mirabilis clinical isolate obtained from critically ill patients
Streptococcus sp. = assay: Antimicrobial activity against Streptococcus sp. clinical isolates
[27] = T>MIC in bacilli infected patients with severe renal impairment at 250 mg administered as 4 hrs infusion every 12 hrs
Citrobacter freundii = assay: Antimicrobial activity against Citrobacter freundii clinical isolates
Serratia marcescens = assay: Antimicrobial activity against Serratia marcescens clinical isolates

SMILES: C[C@@H](O)[C@H]1C(=O)N2C(C(=O)O)=C(S[C@@H]3CN[C@H](CNS(N)(=O)=O)C3)[C@H](C)[C@H]12 [DORIPENEM]
- MIC50 (Pseudomonas aeruginosa [1]): 0.5 µg/mL (≈ 1.19 µM)
- MIC90 (Pseudomonas aeruginosa [1]): 4 µg/mL (≈ 9.51 µM)
- MIC (Escherichia coli [2]): ≤ 0.03 µg/mL
- MIC50 (Escherichia coli [2]): ≤ 0.03 µg/mL
- MIC90 (Escherichia coli [2]): 0.03 µg/mL (≈ 0.0713 µM)
- MIC50 (Acinetobacter baumannii): 1 µg/mL (≈ 2.38 µM)
- MIC90 (Acinetobacter baumannii): 32 µg/mL (≈ 76.1 µM)
- MIC50 (Klebsiella aerogenes): 0.06 µg/mL (≈ 0.143 µM)
- MIC90 (Klebsiella aerogenes): 0.12 µg/mL (≈ 0.285 µM)
- MIC50 (Staphylococcus sp. [3]): ≤ 0.03 µg/mL
- MIC90 (Staphylococcus sp. [3]): 16 µg/mL (≈ 38 µM)
- MIC50 (Enterococcus faecalis [4]): 4 µg/mL (≈ 9.51 µM)
- MIC90 (Enterococcus faecalis [4]): 4 µg/mL (≈ 9.51 µM)
- MIC50 (Enterococcus sp.): 4 µg/mL (≈ 9.51 µM)
- MIC90 (Enterococcus sp.): 32 µg/mL (≈ 76.1 µM)
- MIC50 (Escherichia coli [5]): 0.03 µg/mL (≈ 0.0713 µM)
- MIC90 (Escherichia coli [5]): 0.06 µg/mL (≈ 0.143 µM)
- MIC50 (Haemophilus influenzae): 0.12 µg/mL (≈ 0.285 µM)
- MIC90 (Haemophilus influenzae): 0.5 µg/mL (≈ 1.19 µM)
- MIC50 (Morganella morganii): 0.25 µg/mL (≈ 0.595 µM)
- MIC90 (Morganella morganii): 1 µg/mL (≈ 2.38 µM)
- MIC50 (Acinetobacter sp. [6]): 16 µg/mL (≈ 38 µM)
- MIC90 (Acinetobacter sp. [6]): > 32 µg/mL
- MIC (Burkholderia cepacia): 2 µg/mL (≈ 4.76 µM)
- MIC50 (Klebsiella pneumoniae [7]): 0.06 µg/mL (≈ 0.143 µM)
- MIC90 (Klebsiella pneumoniae [7]): 0.25 µg/mL (≈ 0.595 µM)
- MIC50 (Haemophilus sp.): 0.06 µg/mL (≈ 0.143 µM)
- MIC90 (Haemophilus sp.): 0.25 µg/mL (≈ 0.595 µM)
- MIC50 (Enterococcus faecalis [8]): 4 µg/mL (≈ 9.51 µM)
- MIC90 (Enterococcus faecalis [8]): 4 µg/mL (≈ 9.51 µM)
- MIC (Streptococcus pneumoniae [9]): ≤ 0.03 µg/mL
- MIC50 (Streptococcus pneumoniae [9]): ≤ 0.03 µg/mL
- MIC90 (Streptococcus pneumoniae [9]): 0.5 µg/mL (≈ 1.19 µM)
- MIC50 (Staphylococcus aureus [10]): 0.03 µg/mL (≈ 0.0713 µM)
- MIC90 (Staphylococcus aureus [10]): 0.06 µg/mL (≈ 0.143 µM)
- MIC (Citrobacter koseri): ≤ 0.03 µg/mL
- MIC50 (Citrobacter koseri): ≤ 0.03 µg/mL
- MIC90 (Citrobacter koseri): 0.06 µg/mL (≈ 0.143 µM)
- MIC50 (Pseudomonas aeruginosa [11]): 0.5 µg/mL (≈ 1.19 µM)
- MIC90 (Pseudomonas aeruginosa [11]): 8 µg/mL (≈ 19 µM)
- fT>MIC [12]: 35%
- MIC (Staphylococcus aureus [13]): ≤ 0.03 µg/mL
- MIC50 (Staphylococcus aureus [13]): ≤ 0.03 µg/mL
- MIC90 (Staphylococcus aureus [13]): 0.06 µg/mL (≈ 0.143 µM)
- fT>MIC [14]: 35%
- MIC (Streptococcus pneumoniae [15]): ≤ 0.015 µg/mL
- MIC50 (Streptococcus pneumoniae [15]): ≤ 0.015 µg/mL
- MIC90 (Streptococcus pneumoniae [15]): 0.5 µg/mL (≈ 1.19 µM)
- MIC (Enterobacteriaceae): ≤ 0.03 µg/mL
- MIC50 (Enterobacteriaceae): ≤ 0.03 µg/mL
- MIC90 (Enterobacteriaceae): 0.12 µg/mL (≈ 0.285 µM)
- MIC50 [16]: 64 µg/mL (≈ 152 µM)
- MIC90 [16]: > 128 µg/mL
- MIC50 (Klebsiella oxytoca): 0.06 µg/mL (≈ 0.143 µM)
- MIC90 (Klebsiella oxytoca): 0.06 µg/mL (≈ 0.143 µM)
- MIC50 (Acinetobacter sp. [17]): 0.5 µg/mL (≈ 1.19 µM)
- MIC90 (Acinetobacter sp. [17]): 32 µg/mL (≈ 76.1 µM)
- MIC50 (Staphylococcus aureus [18]): ≤ 0.03 µg/mL
- MIC90 (Staphylococcus aureus [18]): 16 µg/mL (≈ 38 µM)
- MIC50 (Enterobacter cloacae [19]): 0.06 µg/mL (≈ 0.143 µM)
- MIC90 (Enterobacter cloacae [19]): 0.5 µg/mL (≈ 1.19 µM)
- MIC50 (Proteus mirabilis [20]): 0.25 µg/mL (≈ 0.595 µM)
- MIC90 (Proteus mirabilis [20]): 0.5 µg/mL (≈ 1.19 µM)
- MIC (Staphylococcus sp. [21]): ≤ 0.03 µg/mL
- MIC50 (Staphylococcus sp. [21]): ≤ 0.03 µg/mL
- MIC90 (Staphylococcus sp. [21]): 0.25 µg/mL (≈ 0.595 µM)
- MIC50 (Enterobacter cloacae [22]): 0.06 µg/mL (≈ 0.143 µM)
- MIC90 (Enterobacter cloacae [22]): 0.12 µg/mL (≈ 0.285 µM)
- MIC50 (Staphylococcus sp. [23]): 0.06 µg/mL (≈ 0.143 µM)
- MIC90 (Staphylococcus sp. [23]): 16 µg/mL (≈ 38 µM)
- MIC50 (Klebsiella pneumoniae [24]): 0.06 µg/mL (≈ 0.143 µM)
- MIC90 (Klebsiella pneumoniae [24]): 0.12 µg/mL (≈ 0.285 µM)
- MIC50 (Staphylococcus aureus [25]): 1 µg/mL (≈ 2.38 µM)
- MIC90 (Staphylococcus aureus [25]): 16 µg/mL (≈ 38 µM)
- MIC50 (Proteus mirabilis [26]): 0.25 µg/mL (≈ 0.595 µM)
- MIC90 (Proteus mirabilis [26]): 1 µg/mL (≈ 2.38 µM)
- MIC (Streptococcus sp.): ≤ 0.03 µg/mL
- MIC50 (Streptococcus sp.): ≤ 0.03 µg/mL
- MIC90 (Streptococcus sp.): 0.06 µg/mL (≈ 0.143 µM)
- fT>MIC [27]: 35%
- MIC (Citrobacter freundii): ≤ 0.03 µg/mL
- MIC50 (Citrobacter freundii): ≤ 0.03 µg/mL
- MIC90 (Citrobacter freundii): 0.06 µg/mL (≈ 0.143 µM)
- MIC50 (Serratia marcescens): 0.12 µg/mL (≈ 0.285 µM)
- MIC90 (Serratia marcescens): 0.25 µg/mL (≈ 0.595 µM)
